The substances below were run on PDCD1 (assay: NGS editing of PDCD1 by dgRNA in HEK cells stably expressing Cas9). Details: at least 3 experiments.
Type: cell-based, human
Description: Transfection of Cas9GFP-expressing HEK293 cells (HEK-293_Cas9GFP) was used for primary screening of target specific crRNAs. […] Selected crRNAs were chemically synthesized and delivered in a 96 well format. HEK-293-Cas9GFP cells were transfected with target crRNAs comprising a flagpole region of SEQ ID NO: 6607 in a 1:1 ratio with stock trRNA of SEQ ID NO: 6660. The transfection was mediated using lipofection technology according to manufacturer's protocol (DharmaFECT Duo, GE LifeSciences; or RNAiMax, LifeTechnologies). Transfected cells were lysed 24 h following lipofection and editing (e.g., cleavage) was detected within lysates with the T7E1 assay and/or next generation sequencing (NGS; below).
PCR primers were first designed around the target site, and the genomic area of interest PCR amplified. Additional PCR was performed according to manufacturer's protocols (Illumina) to add the necessary chemistry for sequencing. The amplicons were then sequenced on an Illumina MiSeq instrument. The reads were then aligned to the human reference genome (e.g., hg38) after eliminating those having low quality scores. From the resulting files containing the reads mapped to the reference genome (BAM files), reads which overlap the target region of interest were selected and the number of wild type reads versus the number of reads which contain an insertion or deletion was calculated. The editing percentage was then defined as the total number of reads with insertions or deletions over the total number of reads, including wild type. To determine the pattern of insertions and/or deletions that resulted from the edit, the aligned reads with indels were selected and the number of a reads with a given indel were summed.
Editing of CRISPR systems containing dgRNA molecules comprising targeting domains to sequences of PDCD1 were tested for editing in HEK (gRNA delivered to cells stably expressing Cas9) and CD3+ T cells (gRNA and Cas9 delivered as RNP) according to the methods described herein.
All mean editing % are as measured by NGS and are based on at least 3 experiments.
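Also: dgRNA lipofected into Cas9-expressing HEK cells, lysed after 24 h, target amplicon sequenced, editing = reads carrying insertions or deletions as percent of all reads including wild type.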

**Q.** For “CR000875: dgRNA targeting domain to PDCD1 (guide ACUUCCACAUGAGCGUGGUC; targeting domain within dual guide RNA, chemistry not given here, further chemistry not given here; listed as Homo sapiens)”, which “HEK (NGS) % Editing Mean” value is on record?
**A.** Its value is 6%.

**Q.** “CR000877: dgRNA targeting domain to PDCD1 (guide GGGCCCUGACCACGCUCAUG; targeting domain within dual guide RNA, chemistry not given here, further chemistry not given here; listed as Homo sapiens)” was tested. Which “HEK (NGS) % Editing Mean” value did it give?
**A.** The value was 5%.

**Q.** Which “HEK (NGS) % Editing Mean” value does the source give for “CR000878: dgRNA targeting domain to PDCD1 (guide ACAUGAGCGUGGUCAGGGCC; targeting domain within dual guide RNA, chemistry not given here, further chemistry not given here; listed as Homo sapiens)” here?
**A.** Its value is 1%.

**Q.** How did the “HEK (NGS) % Editing Mean” value turn out when “CR000879: dgRNA targeting domain to PDCD1 (guide AGGGCCCGGCGCAAUGACAG; targeting domain within dual guide RNA, chemistry not given here, further chemistry not given here; listed as Homo sapiens)” was run?
**A.** Its value is 68%.

**Q.** “CR000880: dgRNA targeting domain to PDCD1 (guide GGUGCCGCUGUCAUUGCGCC; targeting domain within dual guide RNA, chemistry not given here, further chemistry not given here; listed as Homo sapiens)” was tested. Which “HEK (NGS) % Editing Mean” value did it give?
**A.** The value was 10%.

**Q.** “CR000881: gRNA targeting domain to PDCD1, AGGUGCCGCUGUCAUUGCGC (SEQ ID NO: 5777) (targeting domain within guide RNA, chemistry not given here, further chemistry not given here; listed as Homo sapiens)” was tested. Which “HEK (NGS) % Editing Mean” value did it give?
**A.** The value was 21%.

**Q.** How did the “HEK (NGS) % Editing Mean” value turn out when “CR000882: dgRNA targeting domain to PDCD1 (guide GACAGCGGCACCUACCUCUG; targeting domain within dual guide RNA, chemistry not given here, further chemistry not given here; listed as Homo sapiens)” was run?
**A.** The value was 50%.

**Q.** Which “HEK (NGS) % Editing Mean” value does the source give for “CR000883: dgRNA targeting domain to PDCD1 (guide ACAGCGGCACCUACCUCUGU; targeting domain within dual guide RNA, chemistry not given here, further chemistry not given here; listed as Homo sapiens)” here?
**A.** The value was 9%.

**Q.** “CR000884: dgRNA targeting domain to PDCD1 (guide CCAGGGAGAUGGCCCCACAG; targeting domain within dual guide RNA, chemistry not given here, further chemistry not given here; listed as Homo sapiens)” was tested. Which “HEK (NGS) % Editing Mean” value did it give?
**A.** The value was 59%.

**Q.** With “CR000885: dgRNA targeting domain to PDCD1 (guide GAUCUGCGCCUUGGGGGCCA; targeting domain within dual guide RNA, chemistry not given here, further chemistry not given here; listed as Homo sapiens)” as the substance, how does the “HEK (NGS) % Editing Mean” value read?
**A.** The value was 10%.

**Q.** Which “HEK (NGS) % Editing Mean” value does the source give for “CR000886: dgRNA targeting domain to PDCD1 (guide UGAUCUGCGCCUUGGGGGCC; targeting domain within dual guide RNA, chemistry not given here, further chemistry not given here; listed as Homo sapiens)” here?
**A.** The value was 2%.

**Q.** For “CR000887: dgRNA targeting domain to PDCD1 (guide CUCUUUGAUCUGCGCCUUGG; targeting domain within dual guide RNA, chemistry not given here, further chemistry not given here; listed as Homo sapiens)”, which “HEK (NGS) % Editing Mean” value is on record?
**A.** The value was 46%.

**Q.** “CR000888: dgRNA targeting domain to PDCD1 (guide UCUCUUUGAUCUGCGCCUUG; targeting domain within dual guide RNA, chemistry not given here, further chemistry not given here; listed as Homo sapiens)” was tested. Which “HEK (NGS) % Editing Mean” value did it give?
**A.** The value was 4%.

**Q.** Which “HEK (NGS) % Editing Mean” value does the source give for “CR000889: dgRNA targeting domain to PDCD1 (guide CUCUCUUUGAUCUGCGCCUU; targeting domain within dual guide RNA, chemistry not given here, further chemistry not given here; listed as Homo sapiens)” here?
**A.** The value was 3%.

**Q.** Which “HEK (NGS) % Editing Mean” value does the source give for “CR000890: dgRNA targeting domain to PDCD1 (guide GCUCUCUUUGAUCUGCGCCU; targeting domain within dual guide RNA, chemistry not given here, further chemistry not given here; listed as Homo sapiens)” here?
**A.** Its value is 5%.

**Q.** For “CR000891: dgRNA targeting domain to PDCD1 (guide CGCAGAUCAAAGAGAGCCUG; targeting domain within dual guide RNA, chemistry not given here, further chemistry not given here; listed as Homo sapiens)”, which “HEK (NGS) % Editing Mean” value is on record?
**A.** Its value is 29%.

**Q.** Which “HEK (NGS) % Editing Mean” value does the source give for “CR000892: dgRNA targeting domain to PDCD1 (guide GCAGAUCAAAGAGAGCCUGC; targeting domain within dual guide RNA, chemistry not given here, further chemistry not given here; listed as Homo sapiens)” here?
**A.** Its value is 45%.

**Q.** With “CR000893: dgRNA targeting domain to PDCD1 (guide AGAGCCUGCGGGCAGAGCUC; targeting domain within dual guide RNA, chemistry not given here, further chemistry not given here; listed as Homo sapiens)” as the substance, how does the “HEK (NGS) % Editing Mean” value read?
**A.** The value was 10%.

**Q.** For “CR000894: dgRNA targeting domain to PDCD1 (guide AGGGUUUGGAACUGGCCGGC; targeting domain within dual guide RNA, chemistry not given here, further chemistry not given here; listed as Homo sapiens)”, which “HEK (NGS) % Editing Mean” value is on record?
**A.** Its value is 19%.

**Q.** How did the “HEK (NGS) % Editing Mean” value turn out when “CR000895: dgRNA targeting domain to PDCD1 (guide CACCAGGGUUUGGAACUGGC; targeting domain within dual guide RNA, chemistry not given here, further chemistry not given here; listed as Homo sapiens)” was run?
**A.** Its value is 49%.

**Q.** With “CR000896: dgRNA targeting domain to PDCD1 (guide CGGCCAGUUCCAAACCCUGG; targeting domain within dual guide RNA, chemistry not given here, further chemistry not given here; listed as Homo sapiens)” as the substance, how does the “HEK (NGS) % Editing Mean” value read?
**A.** Its value is 42%.

**Q.** With “CR000897: dgRNA targeting domain to PDCD1 (guide CAACCACCAGGGUUUGGAAC; targeting domain within dual guide RNA, chemistry not given here, further chemistry not given here; listed as Homo sapiens)” as the substance, how does the “HEK (NGS) % Editing Mean” value read?
**A.** Its value is 26%.

Reference: patent publication US12037583B2, “Compositions and methods for immunooncology” (Novartis AG, priority 2015, dated 2024)
